Test results from US9796753B2, “N-substituted indenoisoquinolines and syntheses thereof” (Purdue Research Foundation, priority 2005, dated 2017).
Like-named read-outs stand apart in the source and are kept apart here.

Legend:
recombinant TDP1 = recombinant TDP1 (Homo sapiens, UniProt Q9NUW8); experiment: Gel-based assay measuring the inhibition of recombinant TDP1; format: biochemical; details: Table 7; scores correspond to IC50 ranges; read-out: TDP1 inhibition
Protocol: A 5′-[^32P]-labeled single-stranded DNA oligonucleotide containing a 3′-phosphotyrosine (N14Y) was generated as described by Dexheimer et al. (J. Med. Chem. 2009, 52, 7122-7131). The DNA substrate was then incubated with 5 μM recombinant TDP1 in the absence or presence of inhibitor for 15 min at room temperature in a buffer containing 50 mM Tris HCl, pH 7.5, 80 mM KCl, 2 mM EDTA, 1 mM DTT, 40 μg/ml BSA and 0.01% Tween-20. Reactions were terminated by the addition of 1 volume of gel loading buffer [99.5% (v/v) formamide, 5 mM EDTA, 0.01% (w/v) xylene cyanol, and 0.01% (w/v) bromophenol blue]. Samples were subjected to a 16% denaturing PAGE and gels were exposed after drying to a PhosphorImager screen (GE Healthcare). Gel images were scanned using a Typhoon 8600 (GE Healthcare) and densitometric analyses were performed using the ImageQuant software (GE Healthcare).
The TDP1 inhibitory activities of the O-2-substituted indenoisoquinolines were measured by determining their abilities to inhibit the hydrolysis of the phosphodiester linkage between tyrosine and the 3′-end of a DNA oligonucleotide substrate and thus prevent the generation of an oligonucleotide with a free 3′-phosphate (N14P, Scheme 13). Therefore, the disappearance of the gel band for N14P indicates TDP1 inhibition.
Tyrosyl-DNA phosphodiesterase 1 (TDP1) is a DNA repair enzyme that repairs cytotoxic DNA damage induced by Top1 inhibitors.

[1] = system: all human cancer cell lines successfully tested; experiment: NCI screen mean graph midpoint (MGM) for growth inhibition; format: cell-based; details: for GI50: Homo sapiens, read-out: MGM GI50; for MGM (mean graph midpoint for growth inhibition): Table 1, average GI50 of all cell lines tested (approximately 55), test range 10^−8 to 10^−4 molar
Procedure, shortened: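 NCI60 panel cells exposed to compound at 100, 10, 1, 0.1 and 0.01 μM for 48 h, then sulforhodamine B staining. Percentage growth versus control plotted against log concentration; MGM is the midpoint across all lines tested.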

prostate DU-145 = experiment: COMPARE screening (NCI human cancer cell line screen), cytotoxicity GI50; format: cell-based
Procedure, shortened: (§1)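 Step one: incubate NCI60 cell lines 48 h with test agent (100–0.01 μM, tenfold steps). Step two: SRB dye treatment and OD reading. Step three: percentage growth relative to control plotted against log10 concentration.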

lung HOP-62 = experiment: as above; format: cell-based
Procedure, shortened: as §1

CNS SF-539 = experiment: as above; format: cell-based
Procedure, shortened: as §1

ovarian OVCAR-3 = experiment: as above; format: cell-based
Procedure, shortened: as §1

colon HCT-116 = experiment: as above; format: cell-based
Procedure, shortened: as §1

renal SN12C = experiment: as above; format: cell-based
Procedure, shortened: as §1

melanoma UACC-62 = experiment: as above; format: cell-based
Procedure, shortened: as §1

breast MDA-MB-435 = experiment: as above; format: cell-based
Protocol: COMPARE screening. The compounds described herein were examined for antiproliferative activity against the human cancer cell lines in the National Cancer Institute screen (COMPARE screening), in which the activity of each compound was evaluated with approximately 55 different cancer cell lines of diverse tumor origins. […] Therefore, the MGM value represents an overall assessment of toxicity of the compound across numerous cell lines.

[2] = system: panel of twelve human tumor cell lines; experiment: Hollow fiber assay; format: in vivo; set-up: key to IP Score / SC score / Total score: 2 points each time viable cell mass falls ≥50% vs vehicle controls; details: Table 3; for IP Score: intraperitoneal fibers in athymic nude mice, score 2 per 50% or greater reduction in viable cell mass; for IP Score / SC score: compounds IP once daily, four doses, two dose levels; for SC score: subcutaneous fibers in athymic nude mice; for Total score: sum of IP and SC scores
Protocol: Hollow Fiber Activity. […] The effects of the compounds on the reduction of viable cancer cell mass compared to those of controls were determined. Each compound was tested in the hollow fiber assay against a panel of twelve human tumor cell lines as described previously; see, Hollingshead, M.; Plowman, J.; Alley, M.; Mayo, J.; Sausville, E., The Hollow Fiber Assay. Contrib. Oncol. 1999, 54, 109-120; and Plowman, J.; Camalier, R.; Alley, M.; Sausville, E.; Schepartz, S. Contrib. Oncol. […] The compounds were solubilized in 10% DMSO in saline/Tween-80® and administered intraperitoneally once daily for a total of four doses at each of two dose levels. The two doses were selected based on single dose toxicity studies for each derivative. A score of 2 was assigned each time the compound produced a 50% or greater reduction in viable cell mass compared to vehicle-treated controls. The score for each compound was summed for the intraperitoneal fibers and the subcutaneous fibers to provide the total score for each derivative as shown in Table 3 and Table 4. For comparative purposes, the score for the clinically used anticancer drug paclitaxel is provided.

[3] = Table 1, concentration corresponding to 50% growth inhibition, read-out: cytotoxicity (GI50) ovarian OVCAR-3

recombinant TDP1, sequence (Q9NUW8 whole entry): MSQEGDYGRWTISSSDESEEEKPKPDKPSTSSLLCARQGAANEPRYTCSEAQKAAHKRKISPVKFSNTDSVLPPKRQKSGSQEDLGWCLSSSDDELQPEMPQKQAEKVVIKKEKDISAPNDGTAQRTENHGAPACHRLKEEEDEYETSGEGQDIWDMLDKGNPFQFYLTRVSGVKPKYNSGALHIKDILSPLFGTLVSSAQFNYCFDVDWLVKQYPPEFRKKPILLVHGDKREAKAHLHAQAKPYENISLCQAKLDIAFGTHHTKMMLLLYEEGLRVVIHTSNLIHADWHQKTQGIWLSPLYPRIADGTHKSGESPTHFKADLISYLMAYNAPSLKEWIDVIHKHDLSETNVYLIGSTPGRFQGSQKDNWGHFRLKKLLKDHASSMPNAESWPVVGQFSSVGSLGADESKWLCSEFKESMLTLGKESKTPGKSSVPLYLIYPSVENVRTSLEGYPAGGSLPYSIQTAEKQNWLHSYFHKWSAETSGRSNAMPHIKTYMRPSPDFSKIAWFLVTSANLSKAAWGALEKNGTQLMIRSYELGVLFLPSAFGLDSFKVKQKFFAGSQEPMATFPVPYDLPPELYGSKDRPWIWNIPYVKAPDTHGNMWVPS

| SMILES | IC50 (recombinant TDP1) [nM] | GI50 [1] [nM] | GI50 (prostate DU-145) [nM] | GI50 (lung HOP-62) [nM] | GI50 (CNS SF-539) [nM] | GI50 (colon HCT-116) [nM] | GI50 (renal SN12C) [nM] | GI50 (melanoma UACC-62) [nM] | GI50 (breast MDA-MB-435) [nM] | IP Score [2] | SC score [2] | Total score [2] | MGM (mean graph midpoint for growth inhibition) [1] [µM] | further results |
| --- | --- | --- | --- | --- | --- | --- | --- | --- | --- | --- | --- | --- | --- | --- |
| O=C1c2cc3c(cc2-c2c1c1cc(F)c(F)cc1c(=O)n2CCCn1ccnc1)OCO3 [Compound 42] | > 111000 | 30 | – | – | – | – | – | – | – | – | – | – | – | – |
| O=C1c2cc3c(cc2-c2c1c1ccc(Cl)cc1c(=O)n2CCCNCCO)OCO3 [Compound 41] | 1000 to 12000 | 229 | – | – | – | – | – | – | – | – | – | – | – | – |
| O=C1c2cc3c(cc2-c2c1c1ccc(F)cc1c(=O)n2CCCn1ccnc1)OCO3 [Compound 36] | > 111000 | 11 | – | – | – | – | – | – | – | – | – | – | – | – |
| O=C1c2cc3c(cc2-c2c1c1cc(Cl)c(Cl)cc1c(=O)n2CCCn1ccnc1)OCO3 [Compound 44] | > 111000 | 17 | – | – | – | – | – | – | – | – | – | – | – | – |
| O=C1c2cc3c(cc2-c2c1c1ccc(F)cc1c(=O)n2CCCN1CCOCC1)OCO3 [Compound 37] | > 111000 | – | – | – | – | – | – | – | – | – | – | – | – | – |
| COc1cc2c3c(n(CCCN4CCNCC4)c(=O)c2cc1OC)-c1cc2c(cc1C3=O)OCO2.Cl.Cl [Compound 5p, 6-(3-Piperazinyl-1-propyl)-5,6-dihydro-2,3-dimethoxy-8,9-methylenedioxy-5,11-dioxo-11H-indeno[1,2-c]isoquinoline Dihydrochloride] | – | – | 15 | < 5 | < 5 | 575 | 91 | 1200 | 4570 | 16 | 2 | 18 | 0.382 ± 0.119 | GI50 (ovarian OVCAR-3; [3]): 2040 nM |
| COc1cc2c3c(n(CCCN4CCN(CCO)CC4)c(=O)c2cc1OC)-c1cc2c(cc1C3=O)OCO2 [Compound 5w, 3-[(1-Hydroxyethyl-piperazine)-1-propyl]-5,6-dihydro-2,3-dimethoxy-8,9-methylenedioxy-5,11-dioxo-11H-indeno[1,2-c]isoquinoline] | – | – | 275 | 9770 | 1440 | 2340 | > 100000 | 1230 | > 100000 | 8 | 0 | 8 | 7.86 ± 0.27 | GI50 (ovarian OVCAR-3): 15100 nM |
| O=C1c2cc3c(cc2-c2c1c1ccc(F)cc1c(=O)n2CCCNCCO)OCO3 [Compound 38] | 1000 to 12000 | 55 | – | – | – | – | – | – | – | – | – | – | – | – |
| O=C1c2cc3c(cc2-c2c1c1ccc(Cl)cc1c(=O)n2CCCn1ccnc1)OCO3 [Compound 39] | 37000 to 111000 | 24 | – | – | – | – | – | – | – | – | – | – | – | – |
| COc1cc2c3c(n(CCCN4CCCNCC4)c(=O)c2cc1OC)-c1cc2c(cc1C3=O)OCO2.Cl.Cl [Compound 5v, 6-(3-Homopiperazinyl-1-propyl)-5,6-dihydro-2,3-dimethoxy-8,9-methylenedioxy-5,11-dioxo-11H-indeno[1,2-c]isoquinoline Dihydrochloride] | – | – | 81 | < 5 | 145 | 214 | 145 | 457 | 2630 | 12 | 2 | 14 | 0.715 ± 0.335 | GI50 (ovarian OVCAR-3; [3]): 5010 nM |
